We go through 37 compounds from patent publication US11053234B2 (GlaxoSmithKline Intellectual Property Development Limited, priority 2016, dated 2021).

The target of this assay is T1, haematopoietic prostaglandin D synthase (H-PGDS) (Homo sapiens, UniProt O60760).
T1 construct: Full length human H-PGDS cDNA (Invitrogen Ultimate ORF 10H13026) was amplified by PCR; 6-His (N); TEV protease cleavage site (N); made in house; host or cells: E. coli BL21 (DE3*), vector pET22b+
The experiment in a line: H-PGDS RapidFire high throughput mass spectrometry assay (conversion of PGH2 to PGD2). The class given is biochemical. As to conditions: 10 nM H-PGDS, PGH2 formed in situ by COX-2 from arachidonic acid; read-out: Potency Range (mean pIC50) (converted). The procedure, abridged:
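PGH2 substrate generated in situ by COX-2 (full-length human, FLAG-tagged, Sf9-expressed) from arachidonic acid at ˜10 μM, then converted by full-length human His-tagged H-PGDS (E. coli-expressed). RapidFire SPE–triple quadrupole MS measured PGD2 against PGF2α as substrate surrogate to give percent conversion.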

T1 sequence (O60760 whole entry): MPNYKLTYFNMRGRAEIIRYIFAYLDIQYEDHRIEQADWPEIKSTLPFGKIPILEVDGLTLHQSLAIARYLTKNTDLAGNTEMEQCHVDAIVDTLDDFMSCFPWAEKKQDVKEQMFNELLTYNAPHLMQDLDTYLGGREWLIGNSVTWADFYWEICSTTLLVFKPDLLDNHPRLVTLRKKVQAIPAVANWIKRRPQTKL

On to `Cc1nc2c(OC3CN(C(=O)N[C@H]4CC[C@H](C(C)(C)O)CC4)C3)cccc2s1` [Example 300, N-((trans)-4-(2-Hydroxypropan-2-yl)cyclohexyl)-3-((2-methylbenzo[d]thiazol-4-yl)oxy)azetidine-1-carboxamide], for which the IC50 was 1260 to 2000 nM.

Take `O=C(Nc1ccn[nH]1)[C@H]1C[C@H](Oc2cccc3scnc23)C1` [Example 301]: the IC50 was 100 to 1000 nM.

For `O=C(Nc1cc(C2CC2)n[nH]1)[C@H]1C[C@H](Oc2cccc3scnc23)C1` [Example 302, (trans)-3-(Benzo[d]thiazol-4-yloxy)-N-(3-cyclopropyl-1H-pyrazol-5-yl)cyclobutanecarboxamide], the IC50 was 10 to 79.4 nM.

For `CC(C)(O)C(=O)N1CCC(NC(=O)[C@H]2C[C@H](Oc3cc(F)cc4scnc34)C2)CC1` [Example 303, (trans)-3-((6-Fluorobenzo[d]thiazol-4-yl)oxy)-N-(1-(2-hydroxy-2-methylpropanoyl)piperidin-4-yl)cyclobutanecarboxamide], the IC50 was 100 to 1000 nM.

Regarding `C[C@H]1[C@@H](Oc2cccc3scnc23)CN1C(=O)N[C@H]1CC[C@H](C(C)(C)O)CC1` [Example 304, (2S,3S)-3-(Benzo[d]thiazol-4-yloxy)-N-((trans)-4-(2-hydroxypropan-2-yl)cyclohexyl)-2-methylazetidine-1-carboxamide], the IC50 was 10 to 79.4 nM.

Regarding `C[C@@H]1[C@H](Oc2cccc3scnc23)CN1C(=O)N[C@H]1CC[C@H](C(C)(C)O)CC1` [Example 305, (2R,3R)-3-(Benzo[d]thiazol-4-yloxy)-N-((trans)-4-(2-hydroxypropan-2-yl)cyclohexyl)-2-methylazetidine-1-carboxamide], the IC50 is 10 to 79.4 nM.

`CS(=O)(=O)c1ccc(NC(=O)N2CC(Oc3cccc4scnc34)C2)cc1` [Example 306, 3-(Benzo[d]thiazol-4-yloxy)-N-(4-(methylsulfonyl)phenyl)azetidine-1-carboxamide]: the IC50 is 10 to 79.4 nM.

Regarding `Cc1cc(NC(=O)[C@H]2C[C@H](Oc3cccc4scnc34)C2)ncn1` [Example 307, (trans)-3-(Benzo[d]thiazol-4-yloxy)-N-(6-methylpyrimidin-4-yl)cyclobutanecarboxamide], the IC50 was 10 to 79.4 nM.

For `CS(=O)(=O)c1ccc(NC(=O)N2CC(Oc3cccc4scnc34)C2)c(F)c1` [Example 308, 3-(Benzo[d]thiazol-4-yloxy)-N-(2-fluoro-4-(methylsulfonyl)phenyl)azetidine-1-carboxamide], the IC50 was 10 to 79.4 nM.

Take `O=C(Nc1cccc(N2CCOCC2)c1)N1CC(Oc2cccc3scnc23)C1` [Example 309, 3-(Benzo[d]thiazol-4-yloxy)-N-(3-morpholinophenyl)azetidine-1-carboxamide]: the IC50 was 100 to 1000 nM.

In the case of `O=C(Nc1ccc(N2CCOCC2)cc1)N1CC(Oc2cccc3scnc23)C1` [Example 310, 3-(Benzo[d]thiazol-4-yloxy)-N-(4-morpholinophenyl)azetidine-1-carboxamide], the IC50 is 10 to 79.4 nM.

For `CS(=O)(=O)c1ccc(NC(=O)N2CC(Oc3cccc4scnc34)C2)nc1` [Example 311, 3-(Benzo[d]thiazol-4-yloxy)-N-(5-(methylsulfonyl)pyridin-2-yl)azetidine-1-carboxamide], the IC50 was 10 to 79.4 nM.

In the case of `O=C(Nc1ccnc(C2CC2)n1)N1CC(Oc2cccc3scnc23)C1` [Example 312, 3-(Benzo[d]thiazol-4-yloxy)-N-(2-cyclopropylpyrimidin-4-yl)azetidine-1-carboxamide], the IC50 is 10 to 79.4 nM.

With `O=C(Nc1ccnc(C2CC2)n1)N1CC(Oc2cc(F)cc3scnc23)C1` [Example 313, N-(2-Cyclopropylpyrimidin-4-yl)-3-((6-fluorobenzo[d]thiazol-4-yl)oxy)azetidine-1-carboxamide], the IC50 is 10 to 79.4 nM.

For `Cn1nc(C2CC2)cc1NC(=O)N1CC(Oc2cccc3scnc23)C1` [Example 314, 3-(Benzo[d]thiazol-4-yloxy)-N-(3-cyclopropyl-1-methyl-1H-pyrazol-5-yl)azetidine-1-carboxamide], the IC50 is 10 to 79.4 nM.

As to `O=C(NC12CC(Nc3ncccn3)(C1)C2)[C@H]1C[C@H](Oc2cccc3scnc23)C1` [Example 315, (trans)-3-(Benzo[d]thiazol-4-yloxy)-N-(3-(pyrimidin-2-ylamino)bicyclo[1.1.1]pentan-1-yl)cyclobutane-1-carboxamide], the IC50 was 10 to 79.4 nM.

For `CC(C)(O)C12CC(NC(=O)N3CC(Oc4cccc5scnc45)C3)(C1)C2` [Example 316, 3-(Benzo[d]thiazol-4-yloxy)-N-(3-(2-hydroxypropan-2-yl)bicyclo[1.1.1]pentan-1-yl)azetidine-1-carboxamide], the IC50 is 100 to 1000 nM.

For `CC(C)(O)C12C3C4C1C1C2C3C41NC(=O)N1CC(Oc2cccc3scnc23)C1` (stereo not shown) [Example 317, 3-(Benzo[d]thiazol-4-yloxy)-N-(4-(2-hydroxypropan-2-yl)cuban-1-yl)azetidine-1-carboxamide], the IC50 is 10 to 79.4 nM.

Consider `CC(C)(O)C12CC(NC(=O)[C@H]3C[C@H](Oc4cccc5scnc45)C3)(C1)C2` [Example 318, (trans)-3-(Benzo[d]thiazol-4-yloxy)-N-(3-(2-hydroxypropan-2-yl)bicyclo[1.1.1]pentan-1-yl)cyclobutane-1-carboxamide], for which the IC50 was 10 to 79.4 nM.

On to `CCOC(=O)NC12CC(NC(=O)[C@H]3C[C@H](Oc4cccc5scnc45)C3)(C1)C2` [Example 319, Ethyl (3-((trans)-3-(benzo[d]thiazol-4-yloxy)cyclobutane-1-carboxamido)bicyclo[1.1.1]pentan-1-yl)carbamate], for which the IC50 is 10 to 79.4 nM.

Regarding `CC(C)(O)C12C3C4C1C1C2C3C41NC(=O)[C@H]1C[C@H](Oc2cccc3scnc23)C1` (stereo partly drawn) [Example 320, (trans)-3-(Benzo[d]thiazol-4-yloxy)-N-(4-(2-hydroxypropan-2-yl)cuban-1-yl)cyclobutane-1-carboxamide], the IC50 is 10 to 79.4 nM.

With `Cc1nnc(NC(=O)N2CC(Oc3cccc4scnc34)C2)s1` [Example 321, 3-(Benzo[d]thiazol-4-yloxy)-N-(5-methyl-1,3,4-thiadiazol-2-yl)azetidine-1-carboxamide], the IC50 is 10 to 79.4 nM.

On to `Cn1ccc(NC(=O)N2CC(Oc3cccc4scnc34)C2)n1` [Example 322, 3-(Benzo[d]thiazol-4-yloxy)-N-(1-methyl-1H-pyrazol-3-yl)azetidine-1-carboxamide], for which the IC50 is 100 to 1000 nM.

For the compound `COc1cncc(NC(=O)N2CC(Oc3cccc4scnc34)C2)c1` [Example 323, 3-(Benzo[d]thiazol-4-yloxy)-N-(5-methoxypyridin-3-yl)azetidine-1-carboxamide], the IC50 was 10 to 79.4 nM.

On to `Cn1cc(NC(=O)N2CC(Oc3cccc4scnc34)C2)cn1` [Example 324, 3-(Benzo[d]thiazol-4-yloxy)-N-(1-methyl-1H-pyrazol-4-yl)azetidine-1-carboxamide], for which the IC50 was 100 to 1000 nM.

For `CCn1nnnc1NC(=O)N1CC(Oc2cccc3scnc23)C1` [Example 325, 3-(Benzo[d]thiazol-4-yloxy)-N-(1-ethyl-1H-tetrazol-5-yl)azetidine-1-carboxamide], the IC50 is 100 to 1000 nM.

On to `COC(=O)C12CCC(NC(=O)[C@H]3C[C@H](Oc4cccc5scnc45)C3)(CC1)CC2` [Example 326, Methyl 4-((trans)-3-(benzo[d]thiazol-4-yloxy)cyclobutane-1-carboxamido)bicyclo[2.2.2]octane-1-carboxylate], for which the IC50 was 10 to 79.4 nM.

`COC(=O)C12CCC(NC(=O)N3CC(Oc4cccc5scnc45)C3)(CC1)CC2` [Example 327, Methyl 4-(3-(benzo[d]thiazol-4-yloxy)azetidine-1-carboxamido)bicyclo[2.2.2]octane-1-carboxylate]: the IC50 is 10 to 79.4 nM.

For the compound `CC(C)c1nnc(NC(=O)N2CC(Oc3cccc4scnc34)C2)o1` [Example 328, 3-(Benzo[d]thiazol-4-yloxy)-N-(5-isopropyl-1,3,4-oxadiazol-2-yl)azetidine-1-carboxamide], the IC50 was 100 to 1000 nM.

Regarding `Cc1n[nH]c(NC(=O)N2CC(Oc3cccc4scnc34)C2)c1C#N` [Example 329, 3-(Benzo[d]thiazol-4-yloxy)-N-(4-cyano-3-methyl-1H-pyrazol-5-yl)azetidine-1-carboxamide], the IC50 was 100 to 1000 nM.

As for `CC(C)(O)[C@H]1CC[C@H](NC(=O)N2CC(Oc3cc(C(N)=O)cc4scnc34)C2)CC1` [Example 330, 4-((1-(((trans)-4-(2-Hydroxypropan-2-yl)cyclohexyl)carbamoyl)azetidin-3-yl)oxy)benzo[d]thiazole-6-carboxamide], the IC50 is 10 to 79.4 nM.

With `Cc1nnc(NC(=O)[C@H]2C[C@H](Oc3cccc4scnc34)C2)s1` [Example 331, (trans)-3-(Benzo[d]thiazol-4-yloxy)-N-(5-methyl-1,3,4-thiadiazol-2-yl)cyclobutane-1-carboxamide], the IC50 is 10 to 79.4 nM.

For the compound `CC(C)(C)c1nnc(NC(=O)N2CC(Oc3cccc4scnc34)C2)s1` [Example 332], the IC50 is under 10 nM.

On to `O=C(Nc1nnc(C2CC2)s1)N1CC(Oc2cccc3scnc23)C1` [Example 333, 3-(Benzo[d]thiazol-4-yloxy)-N-(5-cyclopropyl-1,3,4-thiadiazol-2-yl)azetidine-1-carboxamide], for which the IC50 is under 10 nM.

On to `CC(C)c1nnc(NC(=O)N2CC(Oc3cccc4scnc34)C2)s1` [Example 334, 3-(Benzo[d]thiazol-4-yloxy)-N-(5-isopropyl-1,3,4-thiadiazol-2-yl)azetidine-1-carboxamide], for which the IC50 was 10 to 79.4 nM.

On to `CCOCc1nc(NC(=O)[C@H]2C[C@H](Oc3cc(F)cc4scnc34)C2)n[nH]1` [Example 335], for which the IC50 was 10 to 79.4 nM.

For the compound `Cc1nc(NC(=O)N2CC(Oc3cccc4scnc34)C2)ns1` [Example 336, 3-(Benzo[d]thiazol-4-yloxy)-N-(5-methyl-1,2,4-thiadiazol-3-yl)azetidine-1-carboxamide], the IC50 was 10 to 79.4 nM.
